Patent US10232023B2, “Methods for treatment of and prophylaxis against inflammatory disorders” (THE UNIVERSITY OF UTAH RESEARCH FOUNDATION, priority 2013, dated 2019)
Entries after “also recorded” stand apart in the source; their conditions may differ.

Columns and labels:
[1] = system: PMNs isolated from healthy adult donors; assay: PMN chemotaxis, modified Boyden Chamber assay; type: cell-based, human; conditions: 1 nM, one hour pre-incubation; IL-8 2 ng/mL
Method: Chemotaxis by PMNs isolated from healthy adult donors was assessed using a modified Boyden Chamber assay±a one hour pre-incubation […] (1 nM), or SCR (1 nM). Recombinant human IL-8 (2 ng/mL) was used as the chemoattractant. Chemotaxis through a 5 micron filter was determined by counting PMNs in 10 randomly selected high-power fields as previously described in Hill et al., Lancet, 1974, 2: 617-619. In separate experiments, […], or SCR (all at 1 nM) were evaluated for chemoattractant activity using the same system.

[2] = system: human PMNs incubated with live S. aureus; assay: NET formation by human PMNs incubated with live S. aureus; type: cell-based; conditions: pretreatment 1 nM; live S. aureus (MOI 100)
Method: A human histone H3 release assay was used to quantify NET formation (n=2). NET-inhibitory activity of CRISPP was tested using in vitro models of two human infectious diseases: Staphylococcus aureus bacteremia and dengue fever.
Qualitative assessment of NET formation was performed as previously referenced in Yost et al., Blood, 2009, 113: 6419-6427 and McInturff et al., Blood, 2012, 120: 3118-3125. Briefly, primary PMNs isolated from preterm infants, healthy term infants, and healthy adults (2×10^6 cells/mL) were incubated with control buffer or stimulated with LPS (100 ng/mL), PMA (20 nM), or S. aureus bacteria (MOI 100) for 1 hour at 37° C. in 5% CO2/95% air on glass coverslips coated with poly-L-lysine. For selected experiments, primary PMNs were pre-incubated with autologous plasma, cord blood plasma, nNIF (1 nM), CRISPP (1 nM), or SCR (1 nM) for 1 hour prior to imaging. After pre-incubation and/or stimulation, PMNs were gently washed with PBS and incubated with a mixture of cell permeable (SYTO Green, MOLECULAR PROBES) and impermeable (SYTOX Orange, MOLECULAR PROBES) DNA fluorescent dyes. Confocal microscopy was accomplished using a FV300 1×81 Microscope and FLUOVIEW software (OLYMPUS). Both 20× and 60× objectives were used. […]
Supernatant total histone H3 content was determined as previously referenced in McInturff et al., Blood, 2012, 120: 3118-3125. […]

[3] = system: PMA-stimulated adult PMNs; assay: NET formation by PMA-stimulated adult human PMNs; type: cell-based; conditions: pre-incubation 1 nM, 1 hour; PMA 20 nM
Method: NET formation by PMA-stimulated adult PMNs with or without CRISPP pre-incubation was assessed.
(§1) Human PMNs isolated from healthy adult donors were stimulated with LPS (100 ng/mL) or phorbal-12-mystirate (PMA; 20 nM), ±nNIF (1 nM) or CRISPP (1 nM), pre-incubation (1 hour). Scrambled control peptide (SCR) generated using the identical amino acid content as CRISPP but linked in a random order was used as a control. NET formation was assessed 2 hours after stimulation.
(§2) Briefly, primary PMNs isolated from preterm infants, healthy term infants, and healthy adults (2×10^6 cells/mL) were incubated with control buffer or stimulated with LPS (100 ng/mL), PMA (20 nM), or S. aureus bacteria (MOI 100) for 1 hour at 37° C. in 5% CO2/95% air on glass coverslips coated with poly-L-lysine. For selected experiments, primary PMNs were pre-incubated with autologous plasma, cord blood plasma, nNIF (1 nM), CRISPP (1 nM), or SCR (1 nM) for 1 hour prior to imaging. After pre-incubation and/or stimulation, PMNs were gently washed with PBS and incubated with a mixture of cell permeable (SYTO Green, MOLECULAR PROBES) and impermeable (SYTOX Orange, MOLECULAR PROBES) DNA fluorescent dyes. Confocal microscopy was accomplished using a FV300 1×81 Microscope and FLUOVIEW software (OLYMPUS). Both 20× and 60× objectives were used. Z-series images were obtained at a step size 1 μm over a range of 20 μm for each field. OLYMPUS FLUOVIEW and ADOBE PHOTOSHOP CS2 software were used for image processing.
(§3) Supernatant total histone H3 content was determined as previously referenced in McInturff et al., Blood, 2012, 120: 3118-3125. After live cell imaging of control and stimulated primary PMNs (2×10^6/mL; various agonists), the cells were incubated with PBS containing DNase (40 U/mL) for 15 minutes at room temperature to break down and release NETs formed in response to stimulation. The supernatant was gently removed and centrifuged at 420×g for 5 minutes. The cell-free supernatant was then mixed 1:3 with 4× Laemmli buffer prior to western blotting. A polyclonal primary antibody against human histone H3 protein (CELL SIGNALING TECHNOLOGY) and infrared secondary antibodies (LI-COR BIOSCIENCES) were used. Imaging and densitometry were performed on the ODYSSEY™ infrared imaging system (LI-COR BIOSCIENCES).

[4] = system: human PMNs (killing of a pathogenic strain of E. coli); assay: Bacterial killing of E. coli by human PMNs; type: cell-based; conditions: LPS-stimulated (100 ng/mL) PMNs; pretreatment 1 nM
Method: Total, phagocytotic, and NET-mediated extracellular bacterial killing of a pathogenic strain of E. coli by human PMNs±LPS stimulation (100 ng/mL) was assessed, and the results are summarized in FIG. 9. PMNs were also pretreated with CRISPP (1 nM), or a scrambled control peptide control (1 nM). Phagocytotic killing was inhibited with cytochalasin B and D pretreatment (10 μM). NET-mediated killing was inhibited using DNase treatment to dismantle NETs prior to addition of the bacteria.
Bacterial killing efficiency of primary human PMNs was determined as previously described in Yost et al., Blood, 2009, 113: 6419-6427. PMNs were incubated for 30 minutes at 37° C. in 5% CO2/95% air alone or with the phagocytosis inhibitors cytochalasin B and D (10 μM). The leukocytes were then stimulated with LPS (100 ng/mL), placed in poly-L-lysine-coated wells of a 24-well tissue culture plate, and incubated at 37° C. for 1 hour to induce cellular activation and formation of NETs. To inhibit NET-mediated bacterial killing, we incubated selected wells with DNase (40 U/mL) for 15 minutes prior to addition of bacteria. E. coli (1 cfu/100 PMN) were added to the PMNs, followed by continued incubation for 2 hours. The PMNs were then permeabilized with 0.1% Triton-X 100 for 10 minutes and each well was scraped to free all cells. Serial dilutions were performed and bacterial cultures were grown on 5% sheep blood agar plates (HARDY DIAGNOSTICS). After a 24-hour incubation, bacterial counts were determined. Total, phagocytotic, and fractional NET-mediated bacterial killing were determined as described above.

LPS-stimulated PMNs = assay: NET formation by LPS-stimulated adult human PMNs (live cell imaging, histone H3 release); type: cell-based; conditions: healthy adult PMNs; peptide/protein pre-incubation 1 hour (1 nM where stated); LPS 100 ng/mL
Method: PMNs from healthy adult donors and from 28 day old preterm infants were pre-incubated for one hour with thawed cord blood plasma from that particular preterm infant or with autologous plasma collected that day from either the preterm infant peripheral blood sample or the blood sample from the healthy adult. NET formation was then assessed in vitro following LPS-stimulation (100 ng/mL) for 2 hours.
as §1, §2, §3
To determine whether the 29 amino acid peptide identified in Example 5 were the substances circulating in umbilical cord blood responsible for the inhibition of NET formation, cord blood plasma was depleted of nNIF via affinity purification using the carboxy-terminus AAT antibody. nNIF was then eluted from the column and used in experiments to assess the NET-inhibitory activity of unaltered cord blood plasma, nNIF-depleted cord blood plasma, and affinity purified nNIF from cord blood plasma. As a control, recombinant AAT in nNIF-depleted cord blood was also assessed (see FIGS. 5A-5F).
Cord blood plasma depleted of both nNIF and full length AAT was collected as were the peptides captured by affinity purification for use in in vitro assays of NET formation. Full length, enzymatically active AAT (SIGMA) was also resuspended in elution buffer and tested in parallel.

For “Cancer-Associated SCM-Recognition, Immune Defense Suppression, and Serine Protease Protection Peptide [CRISPP, nNIF-related peptide (nNRP)]”, which PMN chemotaxis [1] is on record?
Its PMN chemotaxis is “did not significantly inhibit”.

What about the “NET formation induced by S. aureus” value [2] of the same substance?
Its value is “completely blocked NET formation; also recorded: inhibited NET formation”.

And the “NET formation by PMA-stimulated PMNs” value [3]?
Its value is “significantly inhibited NET formation”.

What about the “NET-mediated extracellular bacterial killing of E. coli” value [4] of the same substance?
Its value is “significantly decreased”.

What about the “Phagocytotic bacterial killing of E. coli” value [4] of the same substance?
The value was “did not alter; also recorded: not different”.

And the “Total bacterial killing of E. coli” value [4]?
The value was “significantly decreased”.

What about the “NET formation by LPS-stimulated PMNs” value (LPS-stimulated PMNs) of the same substance?
The value was “blocked NET formation by LPS-stimulated PMNs in a concentration dependent manner; also recorded: significantly inhibited NET formation”.
